Assay results from a compilation of properties of binary mixtures (doi:10.1016/j.molliq.2016.03.072).

Experiment: xn = mol fraction of the nth substance listed
Settings: 101 kPa

CN(C)C=O + CCCC[n+]1ccn(C)c1.F[P-](F)(F)(F)(F)F
x1 = 1
Settings | viscosity [mPa·s]
303.15 K | 0.83
313.15 K | 0.74
323.15 K | 0.66

CCCC[n+]1ccn(C)c1.F[P-](F)(F)(F)(F)F + CN(C)C=O
viscosity [mPa·s]
Settings | x2 = 0 | x2 = 0.3028 | x2 = 0.4909 | x2 = 0.6262 | x2 = 0.7227 | x2 = 0.7963 | x2 = 0.8543 | x2 = 0.9012 | x2 = 0.9399 | x2 = 0.9724
303.15 K | – | 52.1 | 15.21 | 6.21 | 3.48 | – | 1.93 | 1.5 | – | 0.98
313.15 K | 129.7 | 28.84 | – | 5.2 | 3.33 | 2.12 | – | 1.26 | 1.05 | 0.83
323.15 K | 88.5 | 25.91 | – | – | 2.2 | 1.82 | 1.51 | 1.08 | 0.91 | 0.77
